Consider one compound from ChEMBL document CHEMBL5614399, “Design and Assessment of First-Generation Heterobifunctional PPARα/STING Modulators” (ACS Med Chem Lett, 2024).

For assay [1], the system named is 661W. Nature of the assay: Cytoprotective activity against 4HNE-induced mouse 661W cells assessed as reduction in ROS level at 1 uM preincubated for 2 hrs followed by 4-HNE addition and measured after 24 hrs in presence of A229 by CM-H2DCFDA staining based fluorescence analysis. The class given is functional, cell-based. The note with it: time 26.0 hrs.
Assay [2] has as its system 661W. As to the kind of experiment: Cytoprotective activity against 4HNE-induced mouse 661W cells assessed as reduction in ROS level at 0.5 uM preincubated for 2 hrs followed by 4-HNE addition and measured after 24 hrs in presence of A229 by CM-H2DCFDA staining based fluorescence analysis. The format is functional, cell-based. The note with it: time 26.0 hrs.

The structures appear in SMILES notation. Active and inactive are the calls of the source. The rule behind the calls is not given here.

As to `O=C(Nc1ccc(O)c(NS(=O)(=O)c2ccc(F)cc2)c1)c1ccc(-c2ccccc2)cc1`, the result in assay [1] and in assay [2] was Active.
